Test results published in US12616759B2, “Uses of labeled HSP90 inhibitors” (Sloan-Kettering Institute for Cancer Research, priority 2011, dated 2026).

Key:
[1] = system: Akt, onco-proteins in MDA-MB-468 tumors; assay: pharmacodynamic Western blot of MDA-MB-468 tumors; format: in vivo, mice
Experimental: Pharmacodynamic analyses. For protein analysis, tumors were homogenized in SDS lysis buffer (50 mM Tris, pH 7.4, 2% SDS) and subjected to Western blot analysis. Protein concentrations were determined using the BCA kit (Pierce) according to the manufacturer's instructions. Protein lysates (20-100 μg) were electrophoretically resolved by SDS/PAGE, transferred to nitrocellulose membrane, and probed with the indicated primary antibodies: Anti-Hsp90 from mouse (1:500, SPA-830; Stressgen), anti-Akt from rabbit (1:500, 9272; Cell Signaling), anti-phospho-Akt (Ser 473) from rabbit (1:500, 9271S; Cell Signaling), anti-PARP (p85 fragment) from rabbit (1:250, G7341; Promega). Membranes were then incubated with a 1:5,000 dilution of a peroxidase-conjugated corresponding secondary antibody. Equal loading of the protein samples was confirmed by parallel Western blots for β-actin (1:5,000, ab8227-50; Abcam). Detection was performed using the ECL Enhanced Chemiluminescence Detection System (Amersham Biosciences) according to the manufacturer's instructions.

circulating tumor cells = assay: number of circulating tumor cells in blood of patient after PU-H71; format: in vivo, human; settings: 24 h after 20 mg/m2
Description: Circulating tumor cells (CTCs) are cells that have detached from a primary tumor and circulate in the bloodstream. CTCs may constitute seeds for subsequent growth of additional tumors (metastasis) in different tissues.

MDA-MB-468 tumors = settings: 75 mg/kg, reference 100; cited from earlier work
HSP90 [2] = format: binding
patient tumors = assay: [^124I]-PU-H71 PET/CT in cancer patients, tumor exposure to PU-H71; settings: for tumor AUC: two weeks; for tumor AUC0-48 h: paratracheal node
[3] = system: breast cancer tumor specimens; assay: ex vivo fresh tissue sections of breast cancer patient tumors, apoptosis; format: cell-based, human
Description: Test ex vivo the sensitivity of BC samples to PU-H71.
Ex vivo sensitivity examination: Immediately following surgical removal of the mastectomy specimen the tissue is transported to the Tissue Procurement Services (TPS) area of the Pathology suite. Once the lesion is located, tissue is harvested under sterile conditions. The specimen size removed for evaluation is typically 5-10 mm×5-10 mm. Every effort is made to sample the most viable area. Distant from the lesion, a specimen of equivalent size is removed representative of normal breast epithelial tissue. Both specimens are placed in minimal essential media (MEM) with 1% penicillin/streptomycin. A small portion of the lesion and the entire piece of normal breast epithelial tissue undergo a “snap” freeze for future molecular evaluation by WB. The remaining portion of the lesion (mastectomy) is processed for pathological evaluation. For every lesion pathology provides IHC for receptor status, proliferation markers, epithelial markers and one hematoxylin/eosin (H&E) stained slide accompanied by 10 unstained to be further assessed for non-standard biomarkers (e.g. pAKT, BclxL, HSP90 and Hsp70).
From preliminary analyses we have learned that fresh tissue slicing provides a quick and more efficient ex vivo method for HSP90 inhibition evaluation than primary cell isolation. In addition, it preserves the cancer cells in the endogenous environment of the surrounding tissue. This is important since the interaction between stromal cells and tumor cells is known to play a major role in cancer growth and progression. In this method, the tissue (i.e. lesion) is placed in a plastic mold and embedded in 6% agarose. The agarose-embedded tissue is then mounted on the stage of the Vibratome that is submersed in a chilled reservoir (for tissue preservation) containing MEM with 1% penicillin/streptomycin. The tissue is then sliced using metal blades producing serial sections of the lesion that are 200 μm thick. Each section (minus the surrounding agarose-embedding media) is immediately placed in a 24-well tissue culture plate containing MEM with 1% penicillin/streptomycin. From a 5 mm×5 mm piece of tissue approximately 25 sections are produced. This allows for replicate analyses of tissue sections treated with a minimum of 4 doses of the HSP90 inhibitor and one with vehicle only. Replicates can be assayed by both IHC as well as viability assays (automatic plate reader or cytospin preparation) once tissue section undergoes enzymatic dissociation by brief exposure to dispase.
To date, forty-two specimens encompassing all BC subtypes have been acquired. Out of these, nine were of receptor status negative. […] Treatment of triple negative infiltrating ductal carcinoma (IDC) with PU-H71 attained, in a dose-dependent manner, apoptosis of both the primary tumors and lymph node metastases.

HSP90 [4] = assay: fluorescence polarization HSP90 binding assay using SKBr3 cancer cell lysate
MO-91 tumors = assay: pharmacodynamic study in MO-91 xenografted tumors; format: in vivo, mice; settings: post-administration of one dose
Experimental: Pharmacodynamic Study: Four- to 6-week-old nu/nu athymic female mice were obtained from Taconic Farms. Experiments were carried out under an Institutional Animal Care and Use Committee-approved protocol, and institutional guidelines for the proper and humane use of animals in research were followed. HEL and MO-91 cells were subcutaneously implanted in the right flank of mice using a 20-gauge needle and allowed to grow. Before administration, a solution of PU-H71-HCl was formulated in sterile PBS. For this assay, tumors were allowed to reach 6-8 mm in diameter before treatment. […] Tumors were homogenized and proteins analyzed by western blot as described above.

[5] = HER2+ breast cancer patient, 10 mg/m^2 5 times a week
[6] = HER2+ breast cancer patient, 10 mg/m^2 once a week
[7] = HER2+ breast cancer patient, 10 mg/m^2 three times a week
[8] = pancreatic cancer patient, first tumor, 80 mg/m2 2×week
[9] = pancreatic cancer patient, left lung, 20 mg/m2 twice-week
[10] = pancreatic cancer patient, right hilum LN, 20 mg/m2 twice-week
[11] = pancreatic cancer patient, second tumor, 80 mg/m2 2×week
[12] = several HER2+, triple-negative and ER+ breast cancers

CC(C)NCCCn1c(Sc2cc3c(cc2I)OCO3)nc2c(N)ncnc21 [PU-H71]
Akt degradation, decrease ([1]; 5 mg/kg 3×week, 24 h after last dose): 57%
depletion of onco-proteins, level decrease ([1]; 1×week schedule, 24 h and 96 h after last dose): 95%
drop in the number of CTCs in the blood (circulating tumor cells): 6 fold
anti-tumor effect (MDA-MB-468 tumors): tumor regression and cures
fraction of total cellular HSP90 bound (HSP90 [2]): approximately 30%
average tumor concentration (patient tumors; [5]): 0.81 µM
tumor AUC0-336 h (patient tumors; [5]): 189.8 μM-h
average tumor concentration (patient tumors; [6]): 0.41 µM
tumor AUC0-336 h (patient tumors; [6]): 54 μM-h
average tumor concentration (patient tumors; [7]): 0.71 µM
tumor AUC0-336 h (patient tumors; [7]): 140.8 μM-h
average tumor concentration (patient tumors; HER2+ breast cancer patient, 10 mg/m^2 twice a week): 0.59 µM
tumor AUC0-336 h (patient tumors; HER2+ breast cancer patient, 10 mg/m^2 twice a week for two weeks): 103 μM-h
average tumor concentration (patient tumors; [8]): > 2.8 µM
tumor exposure (patient tumors; [8]): above 760 uM-h
average tumor concentration (patient tumors; [9]): 0.71 µM
tumor AUC (patient tumors; [9]): 190 μM-h
average tumor concentration (patient tumors; [10]): 1.57 µM
tumor AUC (patient tumors; [10]): 499 μM-h
average tumor concentration (patient tumors; [11]): > 6.3 µM
tumor exposure (patient tumors; [11]): > 1998 uM-h
tumor AUC0-48 h (patient tumors; 10 mg/m^2, estimated from [^124I]-PU-H71 PET): 24.9 μM-h
tumor AUC0-48 h (patient tumors; co-injection with 10 mg/m2 PU-H71): 22.3 μM-h
effect on normal and benign tissue ([3]; 48 hour exposure): remained unaltered
apoptosis ([3]; TNBC partly resistant group, 1-2.5 uM): ~50%
apoptosis ([3]; TNBC sensitive group, 1 uM): 100%
apoptosis ([3]; TNBC very sensitive group, 0.5 uM): 100%
apoptosis ([3]; resistant, PT #14): no apoptosis noted at any of the tested concentrations
